Some test systems named below: UACC-257 melanoma; PC-3 prostate; RPMI-8226 leukemia; HS 578T breast; SK-MEL-28 melanoma; NCI-H23 lung; OVCAR-4 ovarian; HOP-62 NSCLC; EKVX NSCLC; RXF 393 renal; NCI-H522 lung.
Holding throughout (experiment): DTP human tumour cell line panel, 48 h

SMILES strings stand for the structures.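 Test compounds were applied to cells in 96-well plates for 48 hours at 5 doses. TGI: total growth inhibition.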

As usually defined, the TGI is the concentration at which net growth stops. For the molecule `CN1CCC2(CC1)SSC1(CCN(C)CC1)S2`, the TGI in the assay on UACC-257 melanoma, with PC-3 prostate, in the assay with RPMI-8226 leukemia, in the assay on HS 578T breast, with SK-MEL-28 melanoma and in the assay with NCI-H23 lung was greater than 100 µM in each case. Moreover, the TGI with OVCAR-4 ovarian and in the assay with HOP-62 NSCLC was greater than 100 µM throughout.

Consider `O=C1c2ccccc2N(O)C1(c1ccccc1)C1CCCC=C1N1CCOCC1` (stereo not given), for which the concentration for total growth inhibition (TGI) in the assay on UACC-257 melanoma, with EKVX NSCLC, with RPMI-8226 leukemia, in the assay on RXF 393 renal, in the assay with SK-MEL-28 melanoma and in the assay on NCI-H23 lung was greater than 100 µM each time. Also, the figures for the TGI in the assay on NCI-H522 lung and in the assay with HOP-62 NSCLC were 73 µM and greater than 100 µM, respectively.

Consider `Nn1c(CCCCCCCCc2nnc(-c3c(O)ccc4ccccc34)n2N)nnc1-c1c(O)ccc2ccccc12`, for which the TGI with UACC-257 melanoma, with PC-3 prostate, in the assay on RPMI-8226 leukemia, with HS 578T breast, in the assay on SK-MEL-28 melanoma and in the assay on NCI-H23 lung was greater than 100 µM throughout. Moreover, the TGI with NCI-H522 lung, in the assay with OVCAR-4 ovarian and in the assay with HOP-62 NSCLC was greater than 100 µM in each case.

As for `C=C1C2CCC3C4(C)CCCC(C)(C(=O)O)C4CCC3(C2)C1OC(=O)/C(C)=C/C` (stereo not given), the TGI is greater than 100 µM in the assay with UACC-257 melanoma; greater than 100 µM in the assay with EKVX NSCLC; greater than 100 µM in the assay with PC-3 prostate; 34.2 µM with RXF 393 renal; greater than 100 µM with HS 578T breast; greater than 100 µM in the assay with SK-MEL-28 melanoma. Also, the TGI with NCI-H23 lung, in the assay with NCI-H522 lung, in the assay on OVCAR-4 ovarian and in the assay on HOP-62 NSCLC was greater than 100 µM in each case.

For the molecule `CC1CCN(C(C)C)P(=S)(Cc2ccccc2)O1` (stereo not given), the TGI in the assay with UACC-257 melanoma was greater than 100 µM; in the assay with EKVX NSCLC it was greater than 100 µM; in the assay on PC-3 prostate, greater than 100 µM; with RPMI-8226 leukemia it was greater than 100 µM; in the assay on SK-MEL-28 melanoma, 40 µM; in the assay on NCI-H23 lung, greater than 100 µM. The total growth inhibition concentration (TGI) with OVCAR-4 ovarian and with HOP-62 NSCLC was greater than 100 µM each time.

Consider `O=[N+]([O-])c1ccc(-c2csc(N=Nc3c(O)[nH]c4ccccc34)n2)cc1`, for which the TGI is greater than 100 µM in the assay on UACC-257 melanoma; greater than 100 µM in the assay with EKVX NSCLC; 86.2 µM with PC-3 prostate; greater than 100 µM in the assay with SK-MEL-28 melanoma; greater than 100 µM with NCI-H23 lung; greater than 100 µM in the assay on OVCAR-4 ovarian. The TGI with HOP-62 NSCLC was greater than 100 µM.

In the case of `OC1NC2Nc3ccccc3NC2NC1O` (stereo not given), the TGI in the assay on UACC-257 melanoma, in the assay on EKVX NSCLC, in the assay on PC-3 prostate, with RXF 393 renal, in the assay on HS 578T breast and in the assay on SK-MEL-28 melanoma was greater than 100 µM throughout. Besides, the TGI with NCI-H23 lung, with NCI-H522 lung, with OVCAR-4 ovarian and with HOP-62 NSCLC was greater than 100 µM each time.

As to `COC(=O)c1ccc(NCc2cc(OC)ccc2OC)cc1`, the concentration for total growth inhibition (TGI) in the assay with UACC-257 melanoma, with EKVX NSCLC, in the assay with PC-3 prostate, in the assay with RPMI-8226 leukemia, in the assay on HS 578T breast and in the assay on SK-MEL-28 melanoma was greater than 100 µM throughout. Besides, the TGI in the assay on NCI-H23 lung, in the assay on NCI-H522 lung and in the assay on OVCAR-4 ovarian was greater than 100 µM each time.

For `CCOP(=O)(OCC)Oc1c(OC)c2[nH]c(C(=O)OC)cc2c2c(C(=O)O)c[nH]c12`, the TGI in the assay on UACC-257 melanoma, in the assay with EKVX NSCLC, with PC-3 prostate, in the assay on RXF 393 renal, in the assay on HS 578T breast and in the assay with SK-MEL-28 melanoma was greater than 100 µM each time. The TGI in the assay with NCI-H23 lung, in the assay with NCI-H522 lung, in the assay on OVCAR-4 ovarian and in the assay with HOP-62 NSCLC was greater than 100 µM throughout.

Take `COc1ccc(S(=O)(=O)Nc2ccc(-c3csc(N4C(=O)/C(=C/c5ccccc5[N+](=O)[O-])N=C4c4ccccc4)n3)cc2)cc1Cl`: the TGI is greater than 100 µM in the assay with UACC-257 melanoma; greater than 100 µM in the assay with PC-3 prostate; greater than 100 µM with RXF 393 renal; greater than 100 µM with HS 578T breast; greater than 100 µM in the assay with SK-MEL-28 melanoma; 76.8 µM in the assay with NCI-H23 lung. Also, the TGI with NCI-H522 lung, in the assay on OVCAR-4 ovarian and in the assay on HOP-62 NSCLC was greater than 100 µM throughout.

Consider `CC(C)(C)C1=C(Br)C(F)(C(C)(C)C)OP1(=O)c1ccccc1` (stereo not given), for which the TGI is 30.9 µM with UACC-257 melanoma; 33.6 µM in the assay on EKVX NSCLC; 32 µM in the assay with PC-3 prostate; 24.5 µM in the assay with RXF 393 renal; 53.8 µM in the assay on HS 578T breast; 34.1 µM in the assay with SK-MEL-28 melanoma. The TGI is 37.9 µM in the assay on NCI-H23 lung, 30.8 µM with NCI-H522 lung, 23 µM in the assay on OVCAR-4 ovarian and 30 µM in the assay on HOP-62 NSCLC.

`O=S1(=O)c2ccccc2N(O)C2=NCCN21`: the TGI in the assay on UACC-257 melanoma, in the assay on EKVX NSCLC, in the assay on RPMI-8226 leukemia, in the assay on RXF 393 renal, with SK-MEL-28 melanoma and in the assay with NCI-H23 lung was greater than 100 µM each time. For the same molecule, the TGI with NCI-H522 lung and with HOP-62 NSCLC was greater than 100 µM throughout.

Take `Cn1c(-c2ccco2)ccc1-c1ccc(C=O)o1`: the TGI with UACC-257 melanoma, in the assay with EKVX NSCLC, in the assay on PC-3 prostate, with RPMI-8226 leukemia, in the assay with RXF 393 renal and with SK-MEL-28 melanoma was greater than 100 µM in each case. Also, the TGI with NCI-H23 lung, in the assay with NCI-H522 lung, with OVCAR-4 ovarian and in the assay on HOP-62 NSCLC was greater than 100 µM in each case.

On to `COc1ccc(C2SCC(=O)N2c2ccc(-n3c(-c4ccccc4)nc4ccccc4c3=O)cc2)cc1` (stereo not given), for which the TGI with UACC-257 melanoma, in the assay with EKVX NSCLC, with PC-3 prostate, with RPMI-8226 leukemia, in the assay with SK-MEL-28 melanoma and in the assay with NCI-H23 lung was greater than 100 µM in each case. For the same molecule, the TGI in the assay on NCI-H522 lung, in the assay with OVCAR-4 ovarian and with HOP-62 NSCLC was greater than 100 µM throughout.

For the molecule `O=C1C(Cl)=C(Cl)C(=O)C(CCNc2nccs2)=C1Cl`, the TGI in the assay with UACC-257 melanoma was 54.3 µM; in the assay on EKVX NSCLC, 60.4 µM; in the assay on PC-3 prostate, 42.2 µM; in the assay with RXF 393 renal, 46.2 µM; in the assay on HS 578T breast, 75.3 µM; with SK-MEL-28 melanoma it was greater than 100 µM. Moreover, the TGI is 59.3 µM in the assay with NCI-H23 lung, 51.3 µM in the assay with NCI-H522 lung, greater than 100 µM in the assay on OVCAR-4 ovarian and greater than 100 µM in the assay on HOP-62 NSCLC.

The values above are taken from PubChem BioAssay (NCI).
